In patent US9403805B2, “Antiviral compounds” (Hoffmann-La Roche Inc., priority 2012, dated 2016) one finds IC50 data, which are given here for four compounds.

Structures are written as SMILES.

The assay deals with HCV GT1b replicon. Description: HCV GT1b replicon luciferase reporter assay (2209-23 cells). The class given is cell-based. As to conditions: Hepatitis C virus, genotype 1a / genotype 1b; 2209-23 cells (Huh-7 with GT-1b Con1 subgenomic replicon), Renilla luciferase read 72 hours after compound addition; read-out: GT-1a - EC50 (nM) HCV, GT1b, IC50 (µM). From the text: Determination of compounds HCV GT1b inhibitory replicon activity using the replicon luciferase reporter assay
The 2209-23 cell line was developed at Roche by stable transfection of the hepatoma cell line Huh-7 with a GT-1b Con1 subgenomic bicistronic replicon as previously described. Subgenomic replicon cell line was established in cured Huh7 cells, obtained from R. Bartenschlager (J Virol. 2003 March; 77 (5):3007-19) The GT-1a H77 subgenomic replicon vector pRLuc H77 1b 75 S/I, was created by replacing the nonstructural region of the GT-1b Con1 subgenomic replicon by the one of the H77 strain, except for the first 75 amino acids of the NS3 protein that are from GT-1b Conl strain. (J. Virol. 2001 77:5352-59) The GT-1a pRLuc H77 1b 75 S/I subgenomic replicon cell line was established in cured Huh7 cells, obtained from R. Bartenschlager. (J Virol. 2003 March; 77 (5):3007-19)
All the subgenomic replicon cell lines were cultured in Dulbecco's Modified Eagle Medium (DMEM-Glutamax™-I; Invitrogen Cat #10569-010). The medium was supplemented with 10% Fetal Bovine Serum (Invitrogen Cat #10082-147), 1% penicillin/streptomycin (Mediatech Cat #30-002-CI) and 500 μg/ml of G418 (Mediatech Cat #30-234-CI). Cells were maintained at 37° C. in a humidified 5% CO2 atmosphere.
2209-23 cells were plated at a cell density of 5000 cells per well in 96 well plates (Becton Dickinson, Cat #35 3296). Cells were plated in 90 μl of Dulbecco's Modified Eagle Medium (DMEM-Glutamax™-I), (Invitrogen Cat #10569-010) medium was supplemented with 5% Fetal Bovine Serum (Invitrogen Cat #10082-147), 1% penicillin/streptomycin (Mediatech Cat #30-002-CI). The pRluc H77 1b 75 SA cells were plated in 96-well plate at 3000 cells/well in DMEM-Glutamax™-I containing 5% FBS and 1% penicillin/streptomycin in 90 μl final volume. Cells were allowed to equilibrate for 24 hours at 37° C. and 5% CO2 at which time compounds were added. Compounds (or medium as a control) were added 24 hours post-plating in 3 fold dilutions at a final DMSO concentration of 1% in 10 μl volume. Renilla luciferase reporter signal was read 72 hours after addition of compounds using the Renilla Luciferase Assay System (Promega, cat #E2820). EC50 values were defined as the compound concentration at which a 50% reduction in the levels of renilla luciferase reporter was observed as compared to control samples in the absence of compound and was determined by non-linear fitting of compound dose-response data. The EC50 was approximated if maximum percentage inhibition was less than 90% and more than 70%.

As usually defined, the IC50 is the point on the concentration scale where inhibition reaches its midpoint.

Turning to `O=C(N[C@H]1C[C@@H](C(=O)N2CCCC2)N(CC2CCCCC2)C1)c1ccc2ccccc2c1O` [Compound I-26, 1-Hydroxy-naphthalene-2-carboxylic acid [(3S,5S)-1-cyclohexylmethyl-5-(pyrrolidine-1-carbonyl)-pyrrolidin-3-yl]-amide], the IC50 is 640 nM.

As to `CCOC(=O)[C@@H]1C[C@@H](NC(=O)c2ccc3ccccc3c2O)CN1Cc1ccccc1` [Compound I-27, (2S,4R)-1-Benzyl-4-[(1-hydroxy-naphthalene-2-carbonyl)-amino]-pyrrolidine-2-carboxylic acid ethyl ester], the IC50 came to 659 nM. On to `COC(=O)[C@@H]1C[C@@H](NC(=O)c2ccc3ccccc3c2O)CN1CC1CCCCC1` [Compound I-28, (2S,4R)-1-Cyclohexylmethyl-4-[(1-hydroxy-naphthalene-2-carbonyl)-amino]-pyrrolidine-2-carboxylic acid methyl ester], for which the IC50 worked out at 793 nM.

With `O=C(N[C@H]1C[C@@H](C(=O)N2CCC2)N(CC2CCCCC2)C1)c1ccc2ccccc2c1O` [Compound I-29, 1-Hydroxy-naphthalene-2-carboxylic acid [(3S,5S)-5-(azetidine-1-carbonyl)-1-cyclohexylmethyl-pyrrolidin-3-yl]-amide], the IC50 amounted to 826 nM.
